The subject of one experiment is A. baumannii ATCC 12457. The experiment can be described thus: MIC, broth micro-dilution. The format is cell-based, Acinetobacter baumannii. Particulars: Acinetobacter baumannii, ATCC12457, read-out: MIC, Single Drug. As to the method: (§1) A variety of Gram-negative reference strains (E. coli ATCC 25922, E. coli ATCC 10763, P. aeruginosa PAO1, P. aeruginosa ATCC 27853, A. baumannii ATCC 12457, A. baumannii ATCC 19606, K. pneumoniae ATCC 4352 and K. pneumoniae ATCC 33495) were used for initial screening and combination testing with PMB. The organisms were speciated using biochemical testing and MALDI-TOF mass spectrometry (Bruker, Preston, VIC, Australia). Activity testing of NCL259 and NCL265 was also carried out on 51 extraintestinal clinical E. coli isolates from companion animals, and 83 porcine and bovine enterotoxigenic E. coli (ETEC) isolates from the Australian Centre for Antimicrobial Resistance Ecology collection. E. coli wild-type (BW 25113) and its mutant BW 25113∆AcrB, in which the inner membrane component AcrB of the tripartite multidrug efflux system AcrA/AcrB/TolC has been deleted, were obtained from the bacterial collection held at Health and Biomedical Innovation, Clinical and Health Sciences, The University of South Australia. All isolates were cultured on sheep blood agar (SBA) plates at 37 °C for 18 h before being subcultured into Luria Bertaini (LB) (Oxoid, Scoresby, VIC, Australia) broth and grown to A600nm = 0.5 (equivalent to approx. 1.5 × 10^8 colony-forming units (CFU)/mL).
(§2) MICs for NCL259 and NCL265 (serial two-fold dilutions commencing at 256 µg/mL) were determined (in duplicate) in round bottom 96–well microtitre trays (Sarstedt 82.1582.001), using the broth micro-dilution method recommended by the Clinical and Laboratory Standards Institute (CLSI). We have shown previously that robenidine can chelate calcium ions from cation-adjusted Mueller-Hinton broth, which causes the loss of activity of robenidine. Therefore, LB broth was used in this study. Additionally, considering the low solubility of robenidine and its analogues in aqueous solutions, two-fold serial dilutions of stock solutions of these compounds were prepared in 100% DMSO [21]. The MIC for ampicillin against each isolate was determined for each test to serve as an internal quality control. The MICs of isolates were determined by visual reading and using an EnSpire Multimode Plate Reader 2300 at A600nm.

For the next experiment, the system named is A. baumannii ATCC 19606. The experiment in a line: MIC, broth micro-dilution. The format is cell-based, Acinetobacter baumannii. Particulars: Acinetobacter baumannii, ATCC19606, read-out: MIC, Single Drug. As for the experimental part:
as §1, §2
On the technique in general: Broth dilution looks for growth in wells or tubes with falling amounts of substance.

Experiment [1] relates to HEL 299 (non-cancerous human lung fibroblast cell line). The experiment in a line: In vitro cytotoxicity, WST-1. Format: cell-based. Particulars: HEL 299, 24 h. The source says: (§3) Potential toxicity of NCL259 and NCL265 to mammalian cells relative to the parent compound (NCL812) was examined using Caco-2 (human colorectal adenocarcinoma cell line), HEL 299 (non-cancerous human lung fibroblast cell line), Hep G2 (human hepatocellular carcinoma cell line), MCF-7 (human mammary gland adenocarcinoma cell line), MDBK (normal Madin–Darby bovine kidney cell line) and Vero (normal adult African green monkey cell line), essentially as described previously. Toxicity to the cell lines was performed using serial two-fold dilutions of each compound from 128 to 1 μg/mL in duplicates in flat bottom 96 well tissue culture trays (Sarstedt 83.3924) containing approximately 2 × 10^4 cells per well in antibiotic-free Dulbecco’s Modified Eagle’s Medium (DMEM; Gibco Cat No: 12430; Thermo Fisher Scientific, Scoresby, VIC, Australia) consisting of 10% (v/v) fetal bovine serum at 37 °C, 5% CO2 for 24 h. Duplicate wells containing ampicillin at 128 to 1 μg/mL were used as controls. Thereafter, 10% (v/v) of the WST-1 cell proliferation assay reagent (Cat No: 05015944001; Roche Life Science, North Ryde, NSW, Australia) was added to each well, the trays were further incubated at 37 °C, 5% CO2 for 1 h and absorbance read at A450nm on a Multiskan Ascent 354 Spectrophotometer (Labsystems, Lilydale, VIC, Australia). The inhibitory concentration of each compound was determined as the half maximal inhibitory concentration (IC50) at A450nm.
A general note: Formazan colour is commonly taken as a measure of viable cells.

In experiment [2] the test system is Hep G2 (human hepatocellular carcinoma cell line). The experiment can be described thus: In vitro cytotoxicity, WST-1. As to conditions: HepG2, 24 h. The format is cell-based.
Description: as §3

Experiment [3] relates to MCF-7 (human mammary gland adenocarcinoma cell line). The experiment can be described thus: In vitro cytotoxicity, WST-1. Format: cell-based. As to conditions: MCF7, 24 h.
Description: as §3

The test system of experiment [4] is MDBK (normal Madin–Darby bovine kidney cell line). The experiment in a line: In vitro cytotoxicity, WST-1. The format is cell-based. Particulars: Bos taurus, 24 h.
Description: as §3

For experiment [5], the system named is Vero (normal adult African green monkey cell line). The experiment can be described thus: In vitro cytotoxicity, WST-1. Format: cell-based. As to conditions: Chlorocebus sabaeus, 24 h.
Description: as §3

Where [6] appears, read: first of two independent experiments.
Setting [7] is: second of two independent experiments.

We go through two molecules from paper PMC9598656, “In Vitro Activity of Robenidine Analogues NCL259 and NCL265 against Gram-Negative Pathogens” (Antibiotics, 2022).

As a reminder, the MIC is the lowest concentration found to suppress growth. Usually IC50 stands for the concentration needed to halve the response being measured.

In brackets after ≈: the same amount, converted by molar mass. Some results are limits rather than exact numbers.

With `[H]/N=C(\N)NN=C(CC1CCCCC1)c1ccc(Cl)cc1` [NCL259, (E)-2-(1-(4-chlorophenyl)-2-cyclohexylethylidene)hydrazine-1-carboximidamide], the minimal inhibitory concentration (MIC) in the experiment with A. baumannii ATCC 12457 and in the experiment on A. baumannii ATCC 19606 was 8 mg/L throughout. Besides, the IC50 is under 2 mg/L in experiment [1] (setting [6]); under 2 mg/L in experiment [1] (setting [7]); under 1 mg/L in experiment [2] (setting [6]); under 1 mg/L in experiment [2] (setting [7]); 3 mg/L (≈ 10.2 µM) in experiment [3] (setting [6]); 6 mg/L (≈ 20.5 µM) in experiment [3] (setting [7]). Further, the IC50 in experiment [4] (setting [6]) worked out at 2 mg/L (≈ 6.83 µM); in experiment [4] (setting [7]) it was 2 mg/L (≈ 6.83 µM); in experiment [5] (setting [6]) it was 6 mg/L (≈ 20.5 µM); in experiment [5] (setting [7]) it was 3 mg/L (≈ 10.2 µM).

Take `[H]/N=C(\N)NN=C(CCCCCC)c1ccc(Cl)cc1` [NCL265, (E)-2-(1-(4-chlorophenyl)heptylidene)hydrazine-1-carboximidamide]: the MIC in the experiment with A. baumannii ATCC 12457 and with A. baumannii ATCC 19606 was 2 mg/L in each case. The IC50 in experiment [1] (setting [6]) was under 2 mg/L; in experiment [1] (setting [7]), under 2 mg/L; in experiment [2] (setting [6]), under 1 mg/L; in experiment [2] (setting [7]) it was under 1 mg/L; in experiment [3] (setting [6]), under 1 mg/L; in experiment [3] (setting [7]), 6 mg/L (≈ 21.4 µM). Further, the IC50 in experiment [4] (setting [6]) was 3 mg/L (≈ 10.7 µM); in experiment [4] (setting [7]) it was 2 mg/L (≈ 7.12 µM); in experiment [5] (setting [6]) it was 6 mg/L (≈ 21.4 µM); in experiment [5] (setting [7]), 3 mg/L (≈ 10.7 µM).
